Laboratory results from patent US20210137853A1, “METHODS OF TREATING EPILEPTIC PATIENTS WITH FENFLURAMINE” (Zogenix International Limited, priority 2019, published 2021).
Values joined by “and” are separate entries in the source; they are usually repeats but may differ in a detail not shown here. Identical values can stand only once. Like-named read-outs stand apart in the source and are kept apart here.

Key:
Dravet syndrome seizures = conditions: supplemented with clobazam and valproate; cited from earlier work
[1] = system: Maximal Electroshock (MES) model of acute generalized tonic clonic seizures; assay: MES test of fenfluramine in combination with serotonergic inhibitors; conditions: for Activity in MES model in presence of FFA (animals protected): Table 7, compound combined with 3 mg/kg FFA; for Protected (N/F) / Impaired (I/F): compound IP at Table 5 dose and time of test, with fenfluramine 3 mg/kg IP 4 hr pre-test; for effect on FFA anti-seizure activity in MES model (in words): summary of Table 7
Method: Specifically, the present example describes characterization of anticonvulsant effects of fenfluramine when administered in combination with various other compounds using a murine model of seizures: a Maximal Electroshock (IVIES) model. Maximal Electroshock (IVIES) is a model of acute generalized tonic clonic seizures. Induction of seizures is caused by 60 Hz 0.2 second alternating 50 mA current in the mouse. Tonic hindlimb extensions are measured to assess seizures or seizure protection.
So, for example, a compound with a 1 hour time of peak activity would be administered 3 hours after FEN administration in the study design.

5-HT1D = 5-HT1D (Homo sapiens, UniProt P28221); conditions: Table 4, cited from earlier work; for Ki: values from ChemBL, PDSP or DrugBank.ca and literature
Sequence of 5-HT1D (P28221 whole entry, species assumed): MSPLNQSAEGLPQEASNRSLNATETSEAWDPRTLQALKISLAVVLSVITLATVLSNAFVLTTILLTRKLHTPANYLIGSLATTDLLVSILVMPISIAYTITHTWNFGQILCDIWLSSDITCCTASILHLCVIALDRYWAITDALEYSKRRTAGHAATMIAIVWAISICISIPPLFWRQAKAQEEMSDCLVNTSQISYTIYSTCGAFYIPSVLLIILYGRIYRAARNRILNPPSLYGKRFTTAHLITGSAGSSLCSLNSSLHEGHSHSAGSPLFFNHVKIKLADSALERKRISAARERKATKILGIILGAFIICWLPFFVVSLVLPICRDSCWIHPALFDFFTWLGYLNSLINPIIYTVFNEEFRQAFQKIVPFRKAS

5-HT1B = 5-HT1B (Homo sapiens, UniProt P28222); conditions: cited from earlier work
Sequence of 5-HT1B (P28222 whole entry, species assumed): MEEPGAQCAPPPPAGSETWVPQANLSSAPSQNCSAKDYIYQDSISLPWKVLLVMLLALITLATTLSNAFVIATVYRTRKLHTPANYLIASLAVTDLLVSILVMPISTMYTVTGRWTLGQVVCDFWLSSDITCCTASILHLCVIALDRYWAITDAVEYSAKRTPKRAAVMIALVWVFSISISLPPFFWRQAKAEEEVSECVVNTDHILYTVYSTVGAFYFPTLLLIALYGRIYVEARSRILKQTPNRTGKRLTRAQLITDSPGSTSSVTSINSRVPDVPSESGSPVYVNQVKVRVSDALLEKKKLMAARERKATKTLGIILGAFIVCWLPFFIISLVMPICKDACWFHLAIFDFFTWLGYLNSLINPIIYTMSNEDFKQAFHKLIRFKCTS

5-HT1A = target: T1, 5-HT1A (Homo sapiens, UniProt P08908); conditions: cited from earlier work; for Ki: values from ChemBL, PDSP or DrugBank.ca and literature
T1 sequence (P08908 1-422): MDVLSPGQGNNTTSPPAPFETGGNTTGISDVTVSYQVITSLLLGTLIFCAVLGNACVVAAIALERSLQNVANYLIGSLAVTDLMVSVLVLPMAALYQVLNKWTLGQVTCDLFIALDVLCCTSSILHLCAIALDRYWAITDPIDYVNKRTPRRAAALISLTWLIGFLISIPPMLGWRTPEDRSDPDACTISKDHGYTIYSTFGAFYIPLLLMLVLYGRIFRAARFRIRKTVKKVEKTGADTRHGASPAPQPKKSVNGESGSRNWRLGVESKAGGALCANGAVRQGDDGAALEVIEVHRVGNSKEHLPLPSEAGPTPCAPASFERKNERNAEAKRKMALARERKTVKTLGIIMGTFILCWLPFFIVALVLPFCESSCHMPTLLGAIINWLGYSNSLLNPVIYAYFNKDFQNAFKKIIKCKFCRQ

[2] = system: Maximal Electroshock (MES) model of acute generalized tonic clonic seizures; assay: MES test of fenfluramine (FFA) alone, dose and time range; assay type: in vivo, mouse
Text: Results are depicted in Table 6 below.

MES test = conditions: cited from earlier work
5-HT2C = target: T2, 5-HT2C (Homo sapiens, UniProt P28335); conditions: Table 4; values from ChemBL, PDSP or DrugBank.ca and literature; cited from earlier work
T2 sequence (P28335 33-458): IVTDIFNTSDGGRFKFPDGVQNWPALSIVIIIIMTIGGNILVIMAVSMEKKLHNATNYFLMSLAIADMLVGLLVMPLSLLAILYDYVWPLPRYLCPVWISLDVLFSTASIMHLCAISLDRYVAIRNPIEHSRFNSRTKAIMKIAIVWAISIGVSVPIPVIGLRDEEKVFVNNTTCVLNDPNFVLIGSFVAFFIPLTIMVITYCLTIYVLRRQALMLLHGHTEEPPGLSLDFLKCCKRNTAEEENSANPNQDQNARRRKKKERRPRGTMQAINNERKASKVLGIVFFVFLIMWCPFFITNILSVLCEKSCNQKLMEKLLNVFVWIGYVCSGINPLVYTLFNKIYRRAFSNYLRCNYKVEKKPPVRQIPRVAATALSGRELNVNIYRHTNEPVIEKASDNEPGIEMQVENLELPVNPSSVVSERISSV

5-HT2A = 5-HT2A (Homo sapiens, UniProt P28223); conditions: Table 4; values from ChemBL, PDSP or DrugBank.ca and literature; cited from earlier work
Sequence of 5-HT2A (P28223 whole entry): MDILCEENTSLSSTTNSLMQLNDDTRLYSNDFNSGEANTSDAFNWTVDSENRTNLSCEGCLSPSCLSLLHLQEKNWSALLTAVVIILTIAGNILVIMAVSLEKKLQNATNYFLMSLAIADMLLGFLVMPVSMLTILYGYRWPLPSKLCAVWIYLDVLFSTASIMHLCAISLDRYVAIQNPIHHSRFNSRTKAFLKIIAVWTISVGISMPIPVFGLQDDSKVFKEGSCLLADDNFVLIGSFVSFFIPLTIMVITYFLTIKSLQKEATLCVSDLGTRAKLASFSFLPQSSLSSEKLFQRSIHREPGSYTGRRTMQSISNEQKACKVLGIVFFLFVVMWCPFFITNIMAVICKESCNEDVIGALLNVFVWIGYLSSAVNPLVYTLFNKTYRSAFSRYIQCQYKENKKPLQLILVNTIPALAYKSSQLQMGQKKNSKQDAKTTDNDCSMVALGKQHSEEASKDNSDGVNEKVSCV

[3] = 50% inhibition of specific binding, Moser et al. 1990
[4] = fenfluramine 3 mg/kg IP plus vehicle (VEH) only

## CC(C)(C)C(O)/C=C/c1ccc2c(c1)OCO2 (stereo not drawn) [Stiripentol, stiripentol]
Dravet syndrome seizures
  reduction of overall seizure rate: 70%

## CN(C)CCCN1c2ccccc2Sc2ccc(Cl)cc21 [Chlorpromazine]
[1]
  Activity in MES model in presence of FFA (animals protected): FFA protected = 5/8
  Protected (N/F): 5/8
  effect on FFA anti-seizure activity in MES model (in words): do not block FFA anti-seizure activity
5-HT1D
  Ki: 452 nM

## O=C1CC2(CCCC2)CC(=O)N1CCNCC1COc2ccccc2O1 (stereo not drawn) [Binospirone]
5-HT1B; [3]
  pIC50 5-HT1B: 4.5
[1]
  Activity in MES model in presence of FFA (animals protected): FFA protected = 3/8
  Impaired (I/F): 0/8
  Protected (N/F): 3/8
5-HT1A; [3]
  pIC50 5-HT1A: 8.6

## CCNC(C)Cc1cccc(C(F)(F)F)c1 (racemic) [Fenfluramine, (RS)—N-ethyl-1-[3-(trifluoromethyl)phenyl]propan-2-amine]
[2]; 2.5 mg/kg IP, 4 hr pre-MES, SOW #1 MES Quantification
  Activity in MES model: FFA protected: FFA protected = 3/4
[2]; 3 mg/kg FFA
  animals protected in the MES assay: 50-60%
[2]; 3 mg/kg IP, 2 hr pre-MES, SOW #1 MES Identification
  Activity in MES model: FFA protected: FFA protected = 3/4
[2]; 3 mg/kg, 4 hr pre-MES, SOW #2 (-) control
  Activity in MES model: FFA protected: FFA protected = 4/8
[2]; 3 mg/kg, 4 hr pre-MES, SOW #3 (-) control
  Activity in MES model: FFA protected: FFA protected = 5/8
[2]; 5 mg/kg IP, 4 hr pre-MES, SOW #1 MES Quantification
  Activity in MES model: FFA protected: FFA protected = 6/8
[2]; 10 mg/kg FFA
  protection in the MES model: 100%
[2]; 10 mg/kg IP, 2 hr pre-MES, SOW #1 MES Time Course
  Activity in MES model: FFA protected: FFA protected = 3/4
[2]; 10 mg/kg IP, 4 hr pre-MES, SOW #1 MES Quantification
  Activity in MES model: FFA protected: FFA protected = 8/8
[2]; 10 mg/kg IP, 4 hr pre-MES, SOW #1 MES Time Course
  Activity in MES model: FFA protected: FFA protected = 4/4
[2]; [4]
  Impaired (I/F): 0/8
  Protected (N/F): 4/8 and 5/8

## CN(C)CCC=C1c2ccccc2COc2ccccc21 [doxepin]
MES test; 0.25 hr post-administration
  ED50 in MES test: 8.2 mg/kg
MES test; IP, at TPE of 5 min
  ED50 in MES test: 6.6 mg
[1]
  Activity in MES model in presence of FFA (animals protected): FFA protected = 7/8
  Protected (N/F): 7/8
  effect on FFA anti-seizure activity in MES model (in words): do not block FFA anti-seizure activity

## Clc1ccc2c(c1)N=C(N1CCNCC1)c1ccccc1N2 [N-desmethyl-clozapine, N-desmethylclozapine]
5-HT2C
  Ki: 4.8 nM
[1]
  Activity in MES model in presence of FFA (animals protected): FFA reduced protection = 1/8
  Impaired (I/F): 0/8
  Protected (N/F): 1/8
  effect on FFA anti-seizure activity in MES model (in words): appear to block FFA anti-seizure activity
5-HT1A; Table 4
  Ki: 160 nM
5-HT1D
  Ki: 130 nM

## CN1CCN(C2=Nc3ccccc3Oc3ccc(Cl)cc32)CC1 [Loxapine]
5-HT2C
  Ki: 9.5 to 21 nM
5-HT1B; Table 4, values from ChemBL, PDSP or DrugBank.ca and literature
  Ki: 388 nM
5-HT1A; Table 4
  Ki: 2460 nM
5-HT1D
  Ki: 3470 nM

## O=c1[nH]c2ccccc2n1C1CCN(CCCC(c2ccc(F)cc2)c2ccc(F)cc2)CC1 [Pimozide]
[1]
  Activity in MES model in presence of FFA (animals protected): FFA protected = 3/8
  Protected (N/F): 3/8
  effect on FFA anti-seizure activity in MES model (in words): do not block FFA anti-seizure activity
5-HT1D
  Ki: 3100 nM

## OC(CN1CCN(c2cccc(Cl)c2)CC1)C(c1ccccc1)c1ccccc1 (stereo not drawn) [BRL 15572]
[1]
  Activity in MES model in presence of FFA (animals protected): FFA reduced protection = 1/8
  Impaired (I/F): 0/8
  Protected (N/F): 1/8
  effect on FFA anti-seizure activity in MES model (in words): appear to block FFA anti-seizure activity
5-HT1A; Table 4
  pKi 5-HT1A: 7.7
5-HT1D
  pKi 5-HT1D: 7.9

## CN1CCN(C2=Nc3cc(Cl)ccc3Nc3ccccc32)CC1 [Clozapine]
[1]
  Activity in MES model in presence of FFA (animals protected): FFA reduced protection = 1/8
  effect on FFA anti-seizure activity in MES model (in words): appear to block FFA anti-seizure activity

## OCCN1CCN(CCCN2c3ccccc3Sc3ccc(Cl)cc32)CC1 [perphenazine]
[1]
  Activity in MES model in presence of FFA (animals protected): FFA reduced protection = 2/8
  Protected (N/F): 2/8

## NC(=O)N1c2ccccc2C=Cc2ccccc21 [Carbamazepine]
[1]
  Activity in MES model in presence of FFA (animals protected): Protected = 8/8
  Impaired (I/F): 0/8
  Protected (N/F): 8/8
  effect on FFA anti-seizure activity in MES model (in words): no interference was observed

## CN(C)CCCN1c2ccccc2CCc2ccc(Cl)cc21 [clomipramine]
5-HT2C
  Ki: 64.6 nM
[1]
  Activity in MES model in presence of FFA (animals protected): FFA protected = 7/8
  Impaired (I/F): 0/8
  Protected (N/F): 7/8
  effect on FFA anti-seizure activity in MES model (in words): do not block FFA anti-seizure activity

## CN1CCN2c3ccccc3Cc3ccccc3C2C1 (stereo not drawn) [mianserin]
[1]
  Activity in MES model in presence of FFA (animals protected): FFA reduced protection = 2/8
  Impaired (I/F): 0/8
  Protected (N/F): 2/8

## CN1CC2c3ccccc3Oc3ccc(Cl)cc3C2C1 (stereo not drawn) [asenapine]
5-HT2A
  Ki: 0.77 nM
5-HT2C
  Ki: 0.27 nM
[1]
  Activity in MES model in presence of FFA (animals protected): FFA reduced protection = 2/8
  Impaired (I/F): 0/8
  Protected (N/F): 2/8
5-HT1A; Table 4
  Ki: 15 nM
5-HT1D
  Ki: 10.2 nM

## CC(C)NCC(O)COc1cccc2[nH]ccc12 (stereo not drawn) [Pindolol]
[1]
  Activity in MES model in presence of FFA (animals protected): FFA protected = 5/8
  Protected (N/F): 5/8
  effect on FFA anti-seizure activity in MES model (in words): do not block FFA anti-seizure activity
5-HT1D
  Ki: 4900 nM
